# Test system: TNF-α
# Assay: Inhibition of TNF-α in vivo (LPS-challenged mice)
# Design: species or system female Balb/c mice
# Conditions: p.o., LPS 5 mg/kg i.v. after 2 h, serum 1 h after LPS
# Method: Compounds are administered p.o. (100, 30, 10 and 3 mg/kg) to female Balb/c mice (5 mice/dose). After 2 h, lipopolysaccharide (LPS, E. coli serotype 0111:B4, 5 mg/kg) is administered i.v. in the tail vein of each mouse. One hour after LPS administration the mice are asphyxiated by CO2 inhalation and bled out via cardiac puncture.
# TNF-α/Luminex Detection Assay (Bio-Rad Bio-Plex Kit—Catalog #171-G12221)
# Reconstitute the lyophilized premixed TNF-α standard (1 standard tube/two 96-well plates) with 50 μL sterile water (500,000 pg/mL). Gently vortex for 5 seconds, incubate on ice for 30 min, and vortex for 5 seconds before use. Label a set of twelve 1.5 mL tubes with #1-thru #12 and then add the amounts of cell media shown below to the appropriate tubes (standard concentrations are as follows: 50,000; 25,000; 12,500; 6,250; 3,125; 1,562.5; 781.3; 390.6; 195.3; 97.7; 48.8; and 24.4 pg/mL). Vortex the premixed anti-cytokine conjugated beads (25×) vigorously for 30 seconds. Dilute the anti-cytokine conjugated beads to a 1× concentration using 1× Bio-Plex Assay Buffer. […] Read standards and samples on Luminex machine. These intensity readings are then converted to picogram/milliliter units based on a 12-point standard curve created in duplicate using a four-parameter logistic regression method (Bio-Plex Manager 2.0, Bio-Rad), and the IC50 calculated. […]
smiles,measurement,value
"CC(C)(C)Cn1c(N)nc2ccc(-c3nc(C(C)(C)C)[nH]c3-c3ccc(F)cc3)nc21.CS(=O)(=O)O.CS(=O)(=O)O [EXAMPLE 104, Crystalline 5-[2-tert-Butyl-5-(4-fluoro-phenyl)-1H-imidazol-4-yl]-3-(2,2-dimethyl-propyl)-3H-imidazo[4,5-b]pyridin-2-ylamine dimethanesulfonate]",IC50 (suppressed TNF-α in vivo),< 1 mg/kg

# Reference: patent US7582652B2, “Kinase inhibitors” (Eli Lilly and Company, priority 2004, dated 2009)
